Measured values: ChEMBL document CHEMBL5506008, “Synthesis and biological evaluation of 1-phenyl-tetrahydro-β-carboline-based first dual PRMT5/EGFR inhibitors as potential anticancer agents” (Eur J Med Chem, 2024)

Assays:
Type in all cases: functional
MCF7 [1] = test: Induction of cell cycle arrest in human MCF7 cells assessed as accumulation of cells at G1 phase at 25 nM incubated for 48 hrs by PI/RNase staining based flow cytometry analysis (reference value: 48.01%)
MCF7 [2] = test: Induction of cell cycle arrest in human MCF7 cells assessed as accumulation of cells at S phase at 25 nM incubated for 48 hrs by PI/RNase staining based flow cytometry analysis (reference value: 44.87%)
MCF7 [3] = test: Induction of cell cycle arrest in human MCF7 cells assessed as accumulation of cells at G2 phase at 25 nM incubated for 48 hrs by PI/Rnase staining based flow cytometry analysis (reference value: […]%)
MCF7 [4] = test: Induction of cell cycle arrest in human MCF7 cells assessed as accumulation of cells at G1 phase at 50 nM incubated for 48 hrs by PI/RNase staining based flow cytometry analysis (reference value: 48.01%)
MCF7 [5] = test: Induction of cell cycle arrest in human MCF7 cells assessed as accumulation of cells at S phase at 50 nM incubated for 48 hrs by PI/RNase staining based flow cytometry analysis (reference value: 44.87%)
MCF7 [6] = test: Induction of cell cycle arrest in human MCF7 cells assessed as accumulation of cells at G2 phase at 50 nM incubated for 48 hrs by PI/Rnase staining based flow cytometry analysis (reference value: […]%)
MCF7 [7] = test: Induction of apoptosis in human MCF7 cells assessed as live cells at 25 nM measured after 48 hrs by Annexin V-FITC staining based flow cytometry analysis (reference value: 99.26%)
MCF7 [8] = test: Induction of apoptosis in human MCF7 cells assessed as early apoptotic cells at 25 nM measured after 48 hrs by Annexin V-FITC staining based flow cytometry analysis (reference value: 0.58%)
MCF7 [9] = test: Induction of apoptosis in human MCF7 cells assessed as late apoptotic cells at 25 nM measured after 48 hrs by Annexin V-FITC staining based flow cytometry analysis (reference value: 0.14%)
MCF7 [10] = test: Induction of apoptosis in human MCF7 cells assessed as dead cells at 25 nM measured after 48 hrs by Annexin V-FITC staining based flow cytometry analysis (reference value: 0.02%)
MCF7 [11] = test: Induction of apoptosis in human MCF7 cells assessed as live cells at 50 nM measured after 48 hrs by Annexin V-FITC staining based flow cytometry analysis (reference value: 99.26%)
MCF7 [12] = test: Induction of apoptosis in human MCF7 cells assessed as early apoptotic cells at 50 nM measured after 48 hrs by Annexin V-FITC staining based flow cytometry analysis (reference value: 0.58%)
MCF7 [13] = test: Induction of apoptosis in human MCF7 cells assessed as late apoptotic cells at 50 nM measured after 48 hrs by Annexin V-FITC staining based flow cytometry analysis (reference value: 0.14%)
MCF7 [14] = test: Induction of apoptosis in human MCF7 cells assessed as dead cells at 50 nM measured after 48 hrs by Annexin V-FITC staining based flow cytometry analysis (reference value: 0.02%)

SMILES: O=C(NC[C@H](O)CN1CCc2ccccc2C1)c1cc(NC2COC2)ncn1
- Activity (MCF7 [1]): 56.22%
- Activity (MCF7 [2]): 43.56%
- Activity (MCF7 [3]): 0.13%
- Activity (MCF7 [4]): 66.11%
- Activity (MCF7 [5]): 22.78%
- Activity (MCF7 [6]): 9.98%
- Activity (MCF7 [7]): 96.29%
- Activity (MCF7 [8]): 1.41%
- Activity (MCF7 [9]): 0.83%
- Activity (MCF7 [10]): 1.47%
- Activity (MCF7 [11]): 88.73%
- Activity (MCF7 [12]): 3.79%
- Activity (MCF7 [13]): 4.31%
- Activity (MCF7 [14]): 3.17%
